Reference: patent US20180011102A1, “THE PROTEIN KINASE ACTIVITY OF PHOSPHOGLYCERATE KINASE 1 AS A TARGET FOR CANCER TREATMENT AND DIAGNOSIS” (Board of Regents, The University of Texas System, priority 2015, published 2018)

Experiments:
[1] = test system: PGK1; assay: Determining KM of PGK1 (PGK1-dependent PDHK phosphorylation, Lineweaver-Burke plot); type: biochemical, human; details: purified recombinant WT PGK1, Sumo-PDHK1, 37° C., means ±SD of three experiments; read-out: Km of ATP for PGK1-dependent PDHK phosphorylation
Experimental: FIGS. 14A-P. Mitochondrial PGK1 Phosphorylates PDHK1 at T338. FIG. 14A. […] Immunoblotting analyses were performed with the indicated antibodies. FIG. 14B. U87 cells (left panel) or U87/EGFR (right panel) cells expressing PGK1 shRNA with or without reconstituted expression of WT rPGK1 and the indicated mutants were stimulated with or without hypoxia for 6 h (left panel) or EGF (100 ng/ml) (right panel) for 6 h. These cells were incubated with [1-^14C]-pyruvate for 2 h. [1-^14C]CO2 production rates were measured. FIG. 14C. U87 cells expressing SFB-PDHK1, SFB-PDHK2, SFB-PDHK3, or SFB-PDHK4 were stimulated with or without hypoxia for 6 h. Mitochondrial fractions of these cells were prepared. […] ATP concentrations in mitoplast isolated from U87 or U251 cells treated with or without hypoxia for 6 h were measured. […] The glycolytic activities of bacterially purified WT PGK1, PGK1 T378P, PGK1 S203A, and PGK1 R39/K41A were measured. […]
Purified recombinant WT PGK1 (0.2 ng) was incubated in 100 μl of reaction buffer (50 mM Tris-HCl [pH 7.5], 600 ng/μl Sumo-PDHK1, 5 mM MgSO4, 1 mM Na3VO4, 1 mM DTT, 1.8 mM phosphorenolpyruvate, 7 units pyruvate kinase, 10 units lactic dehydrogenase, 0.01 mM NADH) with indicated ATP concentration at 37° C. in 96-well plate and were read by multidetection microplate readers (BMG LABTECH, Cary, N.C.) at 339 nm in kinetic mode for 5 min. […]

[2] = test system: U87 cells; assay: Cell proliferation assay under hypoxia; type: cell-based, human; details: PGK1-depleted U87 cells reconstituted with WT PGK1 or PGK1 R39/K41A, DTT 1 mM, hypoxia 4 days
Experimental: FIGS. 17A-H. Mitochondrial PGK1-Dependent PDHK1 Phosphorylation Promotes Cell Proliferation and Brain Tumorigenesis. FIGS. 17A-C. Data represent the means ±SD of three independent experiments. FIG. 17A. A total of 2×10^5 U251 cells with or without PGK1 shRNA (left panel) or PDHK1 shRNA (right panel) expression and with or without reconstituted expression of their WT counterparts and the indicated mutants were plated for 4 days under hypoxic conditions. The cells were then collected and counted. FIG. 17B. A total of 2×10^5 endogenous PGK1-depleted U87 cells with reconstituted expression of WT rPGK1 or rPGK1 R39/K41A were plated and treated with or without DTT (1 mM) during hypoxia for 4 days. The cells were then collected and counted. FIG. 17C. Mitochondria fractions and total cell lysates from endogenous PGK1-depleted U87/EGFRvIII cells with reconstituted expression of WT rPGK1 or rPGK1 S203A were prepared. […] The indicated U87/EGFRvIII cells (2×10^5) were plated for 3 days and were counted (right panel). […] The cells were then collected and counted. #p<0.05. […] Tumor volume was calculated using length a and width b: V=ab^2/2. […] Ki67-positive cells were quantified in 10 microscope fields. […] Apoptotic cells were quantified in 10 microscope fields.
A total of […] cells were plated and counted at 4 days after seeding in DMEM with 10% dialyzed bovine calf serum during hypoxia. […]

[3] = test system: ERK1/2; assay: Immunoblotting of hypoxia-induced ERK1/2 phosphorylation/activation in U87 cells; type: cell-based, human
Experimental: (§1) FIGS. 10A-I. Mitochondrial Translocation of PGK1 is depended on ERK1/2-mediated PGK1 Phosphorylation. FIG. 10A. […] Immunoblotting analyses were performed with the indicated antibodies. FIG. 10B. […] Immunoblotting analyses were performed with the indicated antibodies. FIG. 10C. […] Immunofluorescence analyses were carried out using an anti-PGK1 antibody, MitoTracker, and DAPI. FIG. 10D. U87 cells stably transfected with a vector or Flag-ERK2 K52R were treated with or without hypoxia for 6 h. Mitochondria fractions and total cell lysates were prepared. FIG. 10E. U87 cells were stably transfected with or without vectors expressing HA-MEK1 Q56P with the indicated Flag-ERK2 proteins. Mitochondria fractions and total cell lysates were prepared. Immunoblotting analyses were performed with the indicated antibodies. FIG. 10F. U87 cells were treated with or without hypoxia for 6 h. […] FIG. 10G. Immobilized GST or GST-PGK1 protein was incubated with purified recombinant His-ERK2. Immunoblotting analyses were performed with the indicated antibodies. FIG. 10H. […] Immunoblotting analyses were performed with the indicated antibodies. FIG. 10I. […] Immunoblotting analyses were performed with the indicated antibodies.
FIGS. 11A-J. ERK1/2-mediated PGK1 S203 Phosphorylation Is Required for Mitochondrial Translocation of PGK1. […] The images were quantified by scanning densitometry. […]

[4] = test system: PGK1 S203; assay: Hypoxia-induced PGK1 S203 phosphorylation in U87 cells (streptavidin pull-down / immunoblotting); type: cell-based, human
Experimental: (§2) FIG. 1B. […] FIG. 1C. […] Arrows indicate representative staining of mitochondrial PGK1. Dashed circles indicate mitochondria. FIG. 1D. […] Tubulin was used as a cytosolic protein marker. FIG. 1E. […] Mitochondria fractions and total cell lysates were prepared. FIG. 1F. […] Mitochondria fractions and total cell lysates were prepared. FIG. 1G. […] FIG. 1H. […] FIG. 1I. […] Mitochondrial fractions and total cell lysates were prepared.
FIGS. 11A-J. ERK1/2-mediated PGK1 S203 Phosphorylation Is Required for Mitochondrial Translocation of PGK1. Immunofluorescence, immunoprecipitation, and immunoblotting analyses were performed with the indicated antibodies. FIG. 11A. U87 cells stimulated with or without hypoxia for 6 h were stained with the indicated antibody, MitoTracker, and DAPI. FIG. 11B. […] FIG. 11C. U87 cells were stably transfected with or without vectors expressing HA-MEK1 Q56P with the indicated Flag-ERK2 proteins. Total cell lysates were prepared. FIG. 11D. […] FIG. 11E. Anti-PGK1 pS203 antibody was used to deplete the phosphorylated PGK1 from total cell lysates prepared from U87 cells treated with or without hypoxia for 6 h. The images were quantified by scanning densitometry. […] FIG. 11H. […] FIG. 11I. […] Mitochondria fractions and total cell lysates were prepared. FIG. 11J.
Streptavidin or glutathione agarose beads were incubated with cell lysate (1 mg/ml) or purified protein for 12 h. […]

[5] = test system: PGK1; assay: Hypoxia-induced mitochondrial translocation of PGK1 (mitochondrial fractionation, immunoblotting, immunofluorescence); type: cell-based, human
Experimental: as §2
FIGS. 9A-E. Hypoxia Induces Mitochondrial Translocation of PGK1. FIG. 9A. Total cell lysate, cytosolic, and mitochondrial fractions were prepared from U87 and U251 cells stimulated with or without hypoxia for 6 h. Immunoblotting analyses were performed with the indicated antibodies. Hypoxia-induced HIF1α expression (left panel) was a control for hypoxic stimulation. WCL: whole-cell lysate; Cyto: cytosol; Mito: mitochondria. WB, Western blot. FIG. 9B. Cytosolic and mitochondrial fractions were prepared from U87 and U251 cells stimulated with hypoxia for 6 h. Immunoblotting analyses of equal percentages of cytosolic and mitochondrial fraction were performed with the indicated antibodies. WCL: whole-cell lysate; Cyto: cytosol; Mito: mitochondria. Immunoblotting analyses were performed with the indicated antibodies. The images were quantified by scanning densitometry. FIG. 9C. U87 cells transfected with HIF1α siRNA or a scrambled siRNA before hypoxia stimulation for 6 h. […]

[6] = test system: PGK1; details: U87/EGFR cells, U0126 20 μM for 30 min, EGF 100 ng/ml 6 h
Experimental: EGFR-overxpressed U87 (U87/EGFR) cells pretreated with U0126 (20 μM) for 30 min were stimulated with or without EGF (100 ng/ml) for 6 h. Mitochondria fractions and total cell lysates were prepared.
U87, U87/EGFR, and U251 human GBM cells, BxPC-3 human pancreatic cancer cells, CHL1 human melanoma cells, and mouse embryo fibroblast (MEF) cells were maintained in Dulbecco's modified Eagle's medium (DMEM) supplemented with 10% dialyzed bovine calf serum without pyruvate (HyClone, Logan, Utah). […] For EGF treatments, cell cultures were made quiescent by growing them to confluence, and the medium was replaced with fresh medium containing 0.5% serum for 1 day. EGF at a final concentration of 100 ng/ml was used for cell stimulation.
Mitochondrial and cytosolic fractions were isolated using a mitochondria/cytosol fractionation kit from BioVision (Mountain View, Calif.). Mitochondrial proteins and cytosolic proteins were used in immunoblotting analyses.

[7] = test system: PIN1 and PGK1; details: U87 cells, U0126 20 μM for 30 min before hypoxia 6 h
Experimental: FIGS. 2A-F and H-I. Immunoblotting and immunoprecipitation analyses were carried out using antibodies against the indicated proteins. FIG. 2A U87 cells were pretreated with or without U0126 (20 μM) for 30 min before hypoxic stimulation for 6 h. […] U87 cells were treated with or without hypoxic stimulation for 6 h. A GST pull-down assay with the indicted GST-proteins was performed. […] U87 cells expressing the indicated PGK1 proteins were treated with or without hypoxic stimulation for 6 h.

[8] = test system: MAPK/APK2; assay: Immunoblotting of hypoxia-induced MAPK/APK2 phosphorylation in U87 cells; type: cell-based, human; details: pretreated with SB203580 10 μM for 30 min, hypoxia 6 h
Experimental: as §1

[9] = test system: EGFR; assay: Immunoblotting of hypoxia-induced EGFR phosphorylation in U87 cells; type: cell-based, human; details: AG1478 100 nM for 30 min before hypoxia 6 h
[10] = U87 cells, AG1478 100 nM for 30 min before hypoxia 6 h

Nc1ncnc2c1ncn2[C@@H]1O[C@H](COP(=O)(O)OP(=O)(O)OP(=O)(O)O)[C@@H](O)[C@H]1O [ATP, adenosine triphosphate]
Km [1]: 560 ± 53 µM

O[C@@H](CS)[C@@H](O)CS [DTT]
hypoxia-induced growth suppression [2]: partially rescued

N#CC(=C(/N)Sc1ccccc1N)/C(C#N)=C(\N)Sc1ccccc1N [U0126]
hypoxia-induced phosphorylation of ERK1/2 ([3]; pretreated with U0126 20 μM for 30 min, hypoxia 6 h): blocked | hypoxia-induced PGK1 S203 phosphorylation ([4]; U87 cells expressing SFB-tagged PGK1, U0126 20 μM or SP600125 25 μM for 30 min before hypoxia 6 h): abolished | hypoxia-induced mitochondrial translocation of PGK1 ([5]; U87 and U251 cells, U0126 20 μM for 30 min before hypoxia 6 h): notably reduced | EGF-induced mitochondrial translocation of PGK1 [6]: blocked | hypoxia-increased interaction between endogenous PIN1 and PGK1 [7]: blocked

C[S+]([O-])c1ccc(-c2nc(-c3ccncc3)c(-c3ccc(F)cc3)[nH]2)cc1 (stereo not drawn) [SB203580]
hypoxia-induced phosphorylation of MAPK/APK2 [8]: blocked

COc1cc2ncnc(Nc3cccc(Cl)c3)c2cc1OC [AG1478]
hypoxia-induced ERK activation ([3]; AG1478 100 nM for 30 min before hypoxia 6 h): blocked | hypoxia-induced phosphorylation of PGK1 [4, 10]: blocked | hypoxia-induced EGFR phosphorylation [9]: blocked | hypoxia-induced mitochondrial translocation of PGK1 [5, 10]: blocked
